Measurements as given in patent publication US5625032A, “Selective amylin antagonist peptides and uses therefor” (Amylin Pharmaceuticals, Inc., priority 1993, dated 1997).
Entries after “also recorded” stand apart in the source; their conditions may differ. Peptide text beside a SMILES is read from it.

Tests used:
rat soleus muscle = experiment: Soleus muscle assay: antagonism of 100 nM rat amylin on insulin-stimulated glycogenesis; type: cell-based; conditions: read-out: IC50, antagonism of amylin effect on insulin-stimulation of glycogenesis in skeletal muscle
Method: Rat soleus muscle preparations have been in use for many years to study muscle glycogen metabolism and are well known in the field. The soleus muscle assay can be used to measure or test for amylin antagonist activity in vitro. Assays of biological activity of amylin or amylin antagonist preparations in the soleus muscle are performed using previously described methods (e.g., Young, A. A. et al., Am. J. Physiol. 263:E274-281 (1992)).
In summary, while amylin or amylin agonist activity is assessed by measuring the incorporation of radiolabelled glucose into glycogen in soleus muscle in response to an amylin or other amylin agonist, amylin antagonist activity is assessed by measuring the reversal of this inhibition in the presence of 100 nM rat amylin and an amylin antagonist. Concentrations of peptide dissolved in carrier-free buffers are determined by quantitative amino acid analysis, as described herein. The ability of compounds to act as antagonists in this assay can also be evaluated by measuring IC50 values. Standard errors are determined by fitting of sigmoidal dose response curves using a four parameter logistic equation (De Lean, A., Munson, P. J., Guardabasso, V. and Rodbard, D. (1988) ALLFIT, Version 2.7, National Institute of Child Health and Human Development, N.I.H. Bethesda, Md., 1 diskette).
These assays involving the stimulation by insulin of glycogen synthesis in rat soleus muscle in vitro were performed as described by Young, A. A. et al., Am. J. Physiol. 263:E274-281 (1992). Rat amylin inhibited the insulin-stimulated incorporation of radiolabelled glucose into glycogen.
The effects of the peptide in the rat soleus muscle glycogenesis system were measured according to the following method. Insulin-stimulated radioglucose incorporation was measured as described above in the presence of 100 nM rat amylin to maximally suppress incorporation. Increasing concentrations of AAP30 (SEQ ID NO:30), AAP37 (SEQ ID NO:37) and AAP40 (SEQ ID NO:40) were added to test their antagonism of amylin, i.e., to increase radioglucose incorporation under these conditions.

CGRP receptors = target: T1, CGRP receptors (Homo sapiens, UniProt O60894+Q16602); experiment: CGRP receptor binding assay (125I human αCGRP, SK-N-MC cell membranes); conditions: for IC50: 20 pM 125I human αCGRP; for selectivity for amylin receptors than CGRP receptors: ratio of CGRP receptor IC50 to amylin receptor IC50
T1 construct: SK-N-MC cells were homogenized in 50 mM HEPES buffer, pH 7.4, and membranes were collected by centrifugation; endogenous in cells; host or cells: human SK-N-MC neuroblastoma cells (membranes)
From the text: (§1) As more fully described in Example 9, these assays, like the amylin receptor binding assay, are competition assays which measure the ability of compounds to bind specifically to certain membrane-bound receptors. Preferred sources of membrane preparations used in these assays are human SK-N-MC neuroblastoma cells and human T47D carcinoma cells to measure binding to CGRP and calcitonin receptors, respectively. Compounds being assayed compete for binding to the CGRP receptor preparations with ^125 I human αCGRP and to the calcitonin receptor preparations with ^125 I salmon calcitonin. Competition curves are analyzed as described for amylin receptor binding assays. The affinity of a compound for the amylin receptor relative to the affinity of the compound for the CGRP and calcitonin receptors determines the selectivity of the compound.
(§2) The selectivity of antagonist peptides for the amylin receptor relative to the CGRP and calcitonin receptors was determined by using two in vitro radioligand binding assays and comparing the results obtained to those acquired from the amylin receptor binding assay described in Example 7.
To measure the affinity of the peptides for CGRP receptors, human SK-N-MC neuroblastoma cells were used. […] Van Valen, Piechot & Jurgens, Neuroscience Letters 119:195-198 (1990). SK-N-MC cells were homogenized in 50 mM HEPES buffer, pH 7.4, and membranes were collected by centrifugation for 15 min at 48,000×g. Membranes were suspended at 0.1 to 0.2 mg protein/0.2 ml assay and were incubated in 50 mM HEPES, pH 7.4 containing BSA, bacitracin, and 2 mM MgCl2 with 20 pM ^125 I human αCGRP (labeled at ^10 his, 2000 Ci/mmol) and unlabeled peptide. Additional methods were similar to those described for amylin receptor binding assays in Example 2.

anesthetized rats [1] = experiment: Infusion studies: inhibition of amylin-induced changes in plasma glucose, lactate, calcium and blood pressure; type: in vivo; conditions: rat, i.v. 1.5 mg bolus then 3 mg/hr for 1.5 h; amylin 50 μg bolus + 50 μg/hour
Method: Briefly, these studies are performed on anesthetized rats as described in International Application Number PCT/US92/00185, "Amylin Activity Assays", published Jul. 22, 1992. At time -0.5 hours, test rats are infused with a 1.5 mg bolus of the antagonist being tested followed by antagonist infusion at 3 mg/hr for a further 1.5 hours. At time 0 hours, a 50 μg bolus of amylin is administered followed by amylin infusion at 50 μg/hr for the remainder of the experiment. In these tests, the capacity of the antagonist to block the hyperglycemic and hyperlactemic effects of amylin are indicated by the inhibition of amylin-evoked increases in plasma glucose and plasma lactate.
Amylin antagonists were evaluated in vivo for their ability to inhibit amylin-induced elevation of plasma glucose and plasma lactate and amylin-evoked depression of plasma calcium and blood pressure. Male Harlan Sprague Dawley rats (age 75-85 days, mass 300-350 g) fasted 18-20 hours were halothane anesthetized and cannulated via the saphenous vein for infusions/injections and via the femoral artery for sampling of glucose/lactate/calcium and for recording arterial pressure. One and a half hours after surgery they were infused with a 1.5 mg intravenous bolus of test antagonist, followed by an infusion of 3 mg/hour for a further 1.5 hours (t=-0.5→+1.0 hr). At t=0 hours (0.5 hours after the start of the primed/continuous antagonist infusion) a 50 μg intravenous bolus of rat amylin was administered followed by an infusion of 50 μg/hour which continued until the end of the experiment. Blood samples were collected every 10 minutes for the first 2 hours of the test (then less frequently),and mean arterial pressure was continuously recorded from t=-0.5→t=+0.5 hours. Control rats, not administered the test substance, were injected with either saline or with primed/continuous amylin at t=0 hours, as described above.

calcitonin receptors [2] = experiment: Calcitonin receptor binding assay (125I salmon calcitonin, T47D cell membranes); parameters: species or system human; conditions: ratio of calcitonin receptor IC50 to amylin receptor IC50
From the text: as §1, §2
(§3) To determine the affinity of the antagonist peptides for calcitonin receptors, human T47D carcinoma cells were used. […] Findlay et al., Cancer Research 40:4764-4767 (1980). Membranes were prepared from confluent cultures of T47D cells as described for SK-N-MC cells. Membranes were incubated with ^125 I salmon calcitonin (labeled at ^22 tyr, 2000 Ci/mmol) at a concentration of 30 pM for 60 minutes at ambient temperature. Additional methods were similar to those described for amylin receptor binding assays in Example 2. The IC50 of AAP40 (SEQ ID NO:40) for ^125 I salmon calcitonin binding to human T47D cell membranes was 50 nM.

calcitonin receptors [3] = target: T2, calcitonin receptors (Homo sapiens, UniProt P30988); experiment: as above; conditions: 30 pM 125I salmon calcitonin, 60 minutes, ambient temperature
T2 construct: Membranes were prepared from confluent cultures of T47D cells as described for SK-N-MC cells; endogenous in cells; host or cells: human T47D carcinoma cells (membranes)
T2 sequence (P30988 25-474): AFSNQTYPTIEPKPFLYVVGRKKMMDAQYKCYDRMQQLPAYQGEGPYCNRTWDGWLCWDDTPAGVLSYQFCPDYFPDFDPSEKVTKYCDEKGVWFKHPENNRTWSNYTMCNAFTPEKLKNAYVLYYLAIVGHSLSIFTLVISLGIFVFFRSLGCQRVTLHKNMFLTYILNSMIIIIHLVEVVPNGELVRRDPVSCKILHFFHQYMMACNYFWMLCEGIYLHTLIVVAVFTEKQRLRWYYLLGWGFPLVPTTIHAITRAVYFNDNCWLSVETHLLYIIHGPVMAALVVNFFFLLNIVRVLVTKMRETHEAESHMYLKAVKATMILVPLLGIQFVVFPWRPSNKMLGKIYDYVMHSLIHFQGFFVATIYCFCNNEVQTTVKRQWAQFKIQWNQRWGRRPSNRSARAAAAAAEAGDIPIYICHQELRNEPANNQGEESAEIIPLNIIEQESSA
From the text: as §1, §2, §3

anesthetized rats [4] = experiment: Renin studies: inhibition of amylin-induced plasma renin activity; type: in vivo; conditions: rat, i.v. 0.5 mg then 1.0 mg/hour; amylin 10 μg subcutaneous bolus
Method: The amylin antagonist AAP40 (SEQ ID NO:40) was evaluated in vivo for its ability to inhibit amylin-induced plasma renin activity. Male Harlan Sprague Dawley (age 77-82 days, mass 300-350 g) fasted 18-20 hours were halothane anesthetized and cannulated as described in Example 10. One and a half hours after surgery, one treatment group of 7 rats was administered amylin as a 10 μg subcutaneous bolus (t=0). Another treatment group of 6 rats was similarly treated except that they were also administered AAP40 (SEQ ID NO:40) (1 mg/mL) as a primed continuous intravenous infusion of 0.5 mg, then 1.0 mg/hour for a further 1.5 hours (t=-10 min to t=+120 min). Blood samples were collected at t=-30, 0, 30, 60 and 120 min for assessment of plasma renin activity using the INCStar GammaCoat [^125 I] plasma renin activity RIA kit (INCStar, Stillwater, Minn.; Cat. No. CA-533-553). Control rats, not administered AAP40 (SEQ ID NO:40), were injected with either saline or with primed/continuous amylin at t=0 hours, as described above.

T1 sequence (Q16602 23-461): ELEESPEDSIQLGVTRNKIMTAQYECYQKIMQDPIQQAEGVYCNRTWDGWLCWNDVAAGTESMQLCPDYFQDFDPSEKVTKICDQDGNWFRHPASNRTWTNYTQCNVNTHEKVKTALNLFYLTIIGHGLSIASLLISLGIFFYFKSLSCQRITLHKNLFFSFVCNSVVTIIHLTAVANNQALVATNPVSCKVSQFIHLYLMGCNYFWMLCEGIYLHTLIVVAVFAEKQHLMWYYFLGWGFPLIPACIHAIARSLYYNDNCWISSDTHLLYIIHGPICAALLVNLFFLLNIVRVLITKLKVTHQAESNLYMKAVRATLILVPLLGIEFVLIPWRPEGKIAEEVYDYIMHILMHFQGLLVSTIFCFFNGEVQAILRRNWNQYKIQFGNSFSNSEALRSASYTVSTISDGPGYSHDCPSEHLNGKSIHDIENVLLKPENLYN
T1 sequence (O60894 27-148): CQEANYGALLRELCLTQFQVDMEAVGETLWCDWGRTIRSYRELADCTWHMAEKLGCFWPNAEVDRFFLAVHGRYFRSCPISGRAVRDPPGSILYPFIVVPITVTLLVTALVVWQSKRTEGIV

| Structure (SMILES) | IC50 (rat soleus muscle) | IC50 (CGRP receptors) | selectivity for amylin receptors than CGRP receptors (CGRP receptors) | effect on amylin-induced decrease in blood pressure (hypotension) (anesthetized rats [1]) | effect on amylin-induced decrease in plasma calcium (hypocalcemia) (anesthetized rats [1]) | effect on amylin-induced increase in plasma glucose (hyperglycemia) (anesthetized rats [1]) | effect on amylin-induced increase in plasma lactate (hyperlactemia) (anesthetized rats [1]) | selectivity for amylin receptors than calcitonin receptors (calcitonin receptors [2]) | IC50 (calcitonin receptors [3]) | effect on amylin-induced plasma renin activity (anesthetized rats [4]) |
| --- | --- | --- | --- | --- | --- | --- | --- | --- | --- | --- |
| CC(=O)N[C@@H](C)C(=O)N[C@H](C(=O)N[C@@H](CCC(N)=O)C(=O)N[C@@H](CCCNC(=N)N)C(=O)N[C@@H](CC(C)C)C(=O)N[C@@H](C)C(=O)N[C@@H](CC(N)=O)C(=O)N[C@@H](CCC(=O)O)C(=O)N[C@@H](CC(C)C)C(=O)N[C@H](C(=O)N[C@@H](CCCNC(=N)N)C(=O)N[C@@H](CC(C)C)C(=O)N[C@@H](CCC(N)=O)C(=O)N[C@H](C(=O)N[C@@H](Cc1ccc(O)cc1)C(=O)N1CCC[C@H]1C(=O)N[C@@H](CCCNC(=N)N)C(=O)N[C@H](C(=O)N[C@@H](CC(N)=O)C(=O)N[C@H](C(=O)NCC(=O)N[C@@H](CO)C(=O)N[C@@H](CC(N)=O)C(=O)N[C@H](C(=O)N[C@@H](Cc1ccc(O)cc1)C(N)=O)[C@@H](C)O)C(C)C)[C@@H](C)O)[C@@H](C)O)C(C)C)[C@@H](C)O [AAP40] (Ac-ATQRLANELVRLQTYPRTNVGSNTY-NH2) | 136 nM | 33 nM | 66 fold | did not inhibit | did not inhibit | suppressed; also recorded: prevent | suppressed; also recorded: prevent | 100 fold | 50 nM | effectively inhibits |
| CC(=O)N[C@@H](C)C(=O)N[C@H](C(=O)N[C@@H](CCC(N)=O)C(=O)N[C@@H](CCCNC(=N)N)C(=O)N[C@@H](CC(C)C)C(=O)N[C@@H](C)C(=O)N[C@@H](CC(N)=O)C(=O)N[C@@H](CCC(N)=O)C(=O)N[C@@H](CC(C)C)C(=O)N[C@H](C(=O)N[C@@H](CCCNC(=N)N)C(=O)N[C@@H](CC(C)C)C(=O)N[C@@H](CCC(N)=O)C(=O)N[C@H](C(=O)N[C@@H](Cc1ccc(O)cc1)C(=O)N1CCC[C@H]1C(=O)N[C@@H](CCCNC(=N)N)C(=O)N[C@H](C(=O)N[C@@H](CC(N)=O)C(=O)N[C@H](C(=O)NCC(=O)N[C@@H](CO)C(=O)N[C@@H](CC(N)=O)C(=O)N[C@H](C(=O)N[C@@H](Cc1ccc(O)cc1)C(N)=O)[C@@H](C)O)C(C)C)[C@@H](C)O)[C@@H](C)O)C(C)C)[C@@H](C)O [AAP37] (Ac-ATQRLANQLVRLQTYPRTNVGSNTY-NH2) | 4590 nM | 2.6 nM | 12 fold | did block this effect | did not inhibit | suppressed; also recorded: prevent | suppressed; also recorded: prevent | 762 fold | 160 nM | – |
| CC(=O)N[C@@H](C)C(=O)N[C@H](C(=O)N[C@@H](CCC(N)=O)C(=O)N[C@@H](CC(C)C)C(=O)N[C@@H](CC(C)C)C(=O)N[C@@H](C)C(=O)N[C@@H](CC(N)=O)C(=O)N[C@@H](CCC(N)=O)C(=O)N[C@@H](CC(C)C)C(=O)N[C@H](C(=O)N[C@@H](CCCNC(=N)N)C(=O)N[C@@H](CC(C)C)C(=O)N[C@@H](CCC(N)=O)C(=O)N[C@H](C(=O)N[C@@H](Cc1ccc(O)cc1)C(=O)N1CCC[C@H]1C(=O)N[C@@H](CCCNC(=N)N)C(=O)N[C@H](C(=O)N[C@@H](CC(N)=O)C(=O)N[C@H](C(=O)NCC(=O)N[C@@H](CO)C(=O)N[C@@H](CC(N)=O)C(=O)N[C@H](C(=O)N[C@@H](Cc1ccc(O)cc1)C(N)=O)[C@@H](C)O)C(C)C)[C@@H](C)O)[C@@H](C)O)C(C)C)[C@@H](C)O [AAP30] (Ac-ATQLLANQLVRLQTYPRTNVGSNTY-NH2; N-terminus assumed) | 1130 nM | 69 nM | 43 fold | did not inhibit amylin-induced decreases in blood pressure | did not inhibit | suppressed; also recorded: prevent | suppressed; also recorded: prevent | 22 fold | 36 nM | – |
